PMC12202533, “Mechanistic Insights and Anti-cancer Activity of 2H-benzo[b][1,4]oxazin-3(4H)-one Linked 1,2,3-Triazoles in Human Cancer Cells” (Frontiers in Pharmacology, 2025)
Read-outs that look alike come from different tables or passages of the source.

Experiments:
A549 = experiment: CCK-8 cell viability assay and IC50 measurement; type: cell-based, human; settings: Homo sapiens; for viability at 40 µM / inhibition at 40 µM: A549, 40 μM, 48 h; for viability at 40 µM: CCK-8, read-out: Cell viability (100%), 40 μM, 48 h, A549; for inhibition at 40 µM: read-out: inhibition rate
Protocol: (§1) In order to investigate the anticancer activity of new synthetic 1,4-benzoxazinone-linked 1,2,3-triazole compounds, we chose several cancer cell lines, including A549 (lung), Huh7 (liver), MCF-7 (breast), HCT-116 (colon), and SKOV3 (ovary), and measured cell viability using the CCK-8 assay. Cells were exposed to 40 μM of the compounds for 48 h, and then cell viability was determined. […] In addition, we used the reference drug gefitinib as a positive control and measured its cell viability on different cell lines. […] We used BEAS-2B cells as a normal cell line to determine the toxic effects of these compounds on normal cells. […] Furthermore, we evaluated the IC50 of these compounds in A549.
(§2) Human cancer cell lines A549, Huh7, MCF-7, HCT-116, and SKOV3 were obtained from ATCC. The cells were cultured in DMEM or RPMI 1640 medium supplemented with 10% FBS and 1% penicillin/streptomycin and incubated at 37°C in a CO2-humidified atmosphere.
(§3) Cells were cultured in DMEM or RPMI 1640 medium containing 10% FBS and 1% penicillin/streptomycin at 37°C and 5% CO2. The CCK-8 assay was performed on several human cancer cell lines, including A549, Huh7, MCF-7, HCT-116, and SKOV3, according to the manufacturer’s instructions. Cells were plated at a density of 5 × 10^3 cells per well in a 96-well plate. After 24 h of incubation, cells were treated with 40 μM compounds for 48 h. Cell viability was assessed by adding 10 μL of CCK-8 reagent, dissolved in the cell culture medium, and incubating for 1 h. Absorbance was measured at 450 nm using a microplate reader. IC50 values were determined using a dose-response curve with six concentrations (0, 10, 20, 40, 80, and 160 μM), and IC50 values were calculated using GraphPad Prism software.

HCT-116 = experiment: CCK-8 cell viability assay; type: cell-based; settings: Homo sapiens, HCT-116, 40 μM, 48 h, read-out: Cell viability (100%), 40 μM, 48 h, HCT-116
Protocol: as §1, §2, §3

Huh7 = experiment: CCK-8 cell viability assay; type: cell-based; settings: Homo sapiens, Huh-7, Huh7, 40 μM, 48 h, read-out: Cell viability (100%), 40 μM, 48 h, Huh7
Protocol: as §1, §2, §3

MCF-7 = experiment: CCK-8 cell viability assay; type: cell-based; settings: Homo sapiens, MCF7, MCF-7, 40 μM, 48 h, read-out: Cell viability (100%), 40 μM, 48 h, MCF-7
Protocol: as §1, §2, §3

SKOV3 = experiment: CCK-8 cell viability assay; type: cell-based; settings: Homo sapiens, SK-OV-3, SKOV3, 40 μM, 48 h, read-out: Cell viability (100%), 40 μM, 48 h, SKOV3
Protocol: as §1, §2, §3

[1] = CCK-8 cell viability assay, normal cell line; type: cell-based; settings: human, BEAS-2B cells (normal cell line), BEAS-2B normal cell line, read-out: Cell viability (100%), 40 μM, 48 h, BEAS-2B
Protocol: as §1, §3

[2] = A549, 48 h, read-out: IC50 48 h
[3] = A549, 72 h, read-out: IC50 72 h

Compound	viability at 40 µM (A549) [%]	viability at 40 µM (HCT-116) [%]	viability at 40 µM (Huh7) [%]	viability at 40 µM (MCF-7) [%]	viability at 40 µM (SKOV3) [%]	viability at 48 h, 40 µM [1] [%]	IC50 (A549; [2]) [µM]	IC50 (A549; [3]) [µM]	inhibition at 40 µM (A549) [%]
O=C1COc2ccc(NC(=O)c3cccc(-c4cn(Cc5ccc(Br)cc5)nn4)c3)cc2N1 [Compound 13a]	105 ± 3.6	115 ± 4.01	109 ± 2.48	107 ± 3.39	104 ± 2.08	110 ± 1.16	–	–	–
Cc1cc(C)cc(Cn2cc(-c3cccc(C(=O)Nc4ccc5c(c4)NC(=O)CO5)c3)nn2)c1 [Compound 13b]	114.5 ± 1.06	124 ± 4.48	108 ± 1.9	112 ± 2.33	115 ± 2.08	105.7 ± 0.38	–	–	–
O=C1COc2ccc(NC(=O)c3cccc(-c4cn(Cc5cc(F)c(F)c(F)c5)nn4)c3)cc2N1 [Compound 13c]	63 ± 1	68.2 ± 3.35	110 ± 1.2	91.4 ± 2.78	88.5 ± 1.16	101 ± 1.59	> 100	64 ± 6.77	–
N#Cc1ccc(F)cc1Cn1cc(-c2cccc(C(=O)Nc3ccc4c(c3)NC(=O)CO4)c2)nn1 [Compound 13d]	133 ± 1.67	135 ± 3.97	126 ± 1.71	137 ± 1.49	120 ± 1.47	96.6 ± 2.6	–	–	–
O=C1COc2ccc(NC(=O)c3cccc(-c4cn(Cc5c(F)cccc5Cl)nn4)c3)cc2N1 [Compound 13e]	45.95 ± 0.35	60.9 ± 1.95	126 ± 1.82	120 ± 3.06	85.8 ± 4.65	108 ± 1.19	> 100	64.7 ± 7.35	> 50
O=C1COc2ccc(NC(=O)c3cccc(-c4cn(Cc5ccc(F)c(Cl)c5)nn4)c3)cc2N1 [Compound 13f]	44.5 ± 3.23	68 ± 5.4	88.4 ± 1.3	85.5 ± 2.2	83.7 ± 1.74	124 ± 3.82	55.2 ± 1.56	53.3 ± 6.64	> 50
O=C1COc2ccc(NC(=O)c3cccc(-c4cn(Cc5cccc(Cl)c5)nn4)c3)cc2N1 [Compound 13g]	99.5 ± 3	89.8 ± 1.75	104 ± 3.8	104.5 ± 0.28	109 ± 2.06	103.1 ± 0.72	–	–	–
O=C1COc2ccc(NC(=O)c3cccc(-c4cn(Cc5cc(Cl)ccc5F)nn4)c3)cc2N1 [Compound 13h]	44.1 ± 2.78	80.4 ± 3	105 ± 2.37	94.2 ± 2.87	89.7 ± 5.2	125 ± 1.84	51.1 ± 2.54	49 ± 4.27	> 50
O=C1COc2ccc(NC(=O)c3cccc(-c4cn(Cc5ccc(F)cc5)nn4)c3)cc2N1 [Compound 13i]	130 ± 1.04	142.6 ± 0.97	120 ± 2.62	124.6 ± 0.87	124.2 ± 1.08	117 ± 2.34	–	–	–
O=C1COc2ccc(NC(=O)c3cccc(-c4cn(Cc5ccccc5F)nn4)c3)cc2N1 [Compound 13j]	53.6 ± 2.43	60.3 ± 1.3	97.2 ± 2.59	107 ± 2.73	92.73 ± 0.81	125.8 ± 0.46	43.5 ± 5.67	35.3 ± 5.81	–
O=C1COc2ccc(NC(=O)c3cccc(-c4cn(Cc5cc(Br)cc(Br)c5)nn4)c3)cc2N1 [Compound 13k]	140.65 ± 0.11	152 ± 3.5	129 ± 2	141 ± 1.94	135 ± 2.4	112 ± 1.63	–	–	–
O=C1COc2ccc(NC(=O)c3cccc(-c4cn(Cc5ccc(Br)cc5F)nn4)c3)cc2N1 [Compound 13l]	57 ± 2.02	110 ± 5.15	119 ± 2.06	105 ± 2.42	91.6 ± 2.21	101.5 ± 0.49	> 100	79.2 ± 6.11	–
O=C1COc2ccc(NC(=O)c3cccc(-c4cn(Cc5cccc(C(F)(F)F)c5)nn4)c3)cc2N1 [Compound 13m]	126 ± 1.9	144 ± 2.31	124 ± 3.41	127 ± 1.71	126 ± 2.44	107.9 ± 0.77	–	–	–
O=C1COc2ccc(NC(=O)c3cccc(-c4cn(Cc5c(Cl)cccc5Cl)nn4)c3)cc2N1 [Compound 13n]	55.6 ± 1.02	83.1 ± 1.96	129.4 ± 0.81	122 ± 3.23	89.3 ± 1.41	104.7 ± 0.69	88.6 ± 18	77 ± 6.21	–
N#Cc1ccccc1Cn1cc(-c2cccc(C(=O)Nc3ccc4c(c3)NC(=O)CO4)c2)nn1 [Compound 13o]	64 ± 6.89	97.9 ± 1.02	104 ± 2.7	103 ± 2.66	98.4 ± 2.58	109 ± 1.51	–	–	–
O=C1COc2ccc(NC(=O)c3cccc(-c4cn(Cc5ccc(C(F)(F)F)cc5)nn4)c3)cc2N1 [Compound 13p]	94.7 ± 6.71	120 ± 2.54	119 ± 1.7	113 ± 1.67	104 ± 1.06	102 ± 4.05	–	–	–
O=C1COc2ccc(NC(=O)c3cccc(-c4cn(Cc5ccccc5Br)nn4)c3)cc2N1 [Compound 13q]	29.3 ± 1.12	77.1 ± 2.31	123 ± 1.89	97.9 ± 2.13	89.5 ± 3.23	114.9 ± 0.85	29.4 ± 3.49	34.9 ± 5.25	> 50
O=C1COc2ccc(NC(=O)c3cccc(-c4cn(Cc5cccc(F)c5)nn4)c3)cc2N1 [Compound 13r]	70 ± 2.73	74.9 ± 3.73	131 ± 2.34	122 ± 2.48	115.2 ± 0.67	96.3 ± 1.01	–	–	–
O=C1COc2ccc(NC(=O)c3cccc(-c4cn(Cc5ccc(I)cc5)nn4)c3)cc2N1 [Compound 13s]	128.8 ± 1.19	150.6 ± 1.11	137 ± 1.61	127 ± 3.34	118 ± 1.64	94.7 ± 1.56	–	–	–
